Assay results as given in patent publication US10865191B2, “Heterocyclic compounds useful as modulators of TNF alpha” (BRISTOL-MYERS SQUIBB COMPANY, priority 2015, dated 2020).

Biological target: TNFα (Homo sapiens, UniProt P01375)
Test: TNF induced HEK-Blue assay (NF-kB-driven secreted alkaline phosphatase reporter)
Type: cell-based
Details: TNF induced HEK-Blue assay IC50 value, TNFα 0.5 ng/mL, HEK-Blue-CD40L cells, 18 h
Outline: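 HEK-Blue-CD40L cells (NF-kB-driven SEAP reporter), 20,000/well, added after 30 min pre-incubation of compound (0.004–25 μM final) with TNFα 0.5 ng/mL final at 37 °C; 18 h incubation. SEAP read with QUANTI-Blue at 620 nm; IC50 from 4-parameter logistic fit, normalized to unstimulated and stimulated DMSO controls.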

Sequence of TNFα (P01375 77-233 limits assumed): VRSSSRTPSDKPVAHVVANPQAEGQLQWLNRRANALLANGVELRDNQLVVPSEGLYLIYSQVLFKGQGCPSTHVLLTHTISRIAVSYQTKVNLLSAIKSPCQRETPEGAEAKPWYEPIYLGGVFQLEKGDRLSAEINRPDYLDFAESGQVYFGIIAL

IC50 [nM]	Structure (SMILES)
< 1000	Cc1ccc(C)c(Nc2c(Cl)c(C)nc3ccc(-c4cnc(C(C)(C)O)nc4)cc23)c1 [Example 1, 2-(5-(3-chloro-4-((2,5-dimethylphenyl)amino)-2-methylquinolin-6-yl)pyrimidin-2-yl)propan-2-ol]
< 1000	CC(=O)N1CCC[C@H]([C@H](C)Nc2c(Cl)cnc3ccc(-c4cnc(C(C)(C)O)nc4)cc23)C1 [Example 107, 1-((S)-3-((S)-1-((3-chloro-6-(2-(2-hydroxypropan-2-yl)pyrimidin-5-yl)quinolin-4-yl)amino)ethyl)piperidin-1-yl)ethanone]

Same assay, conditions: TNFα 0.5 ng/mL, HEK-Blue-CD40L cells, 18 h; read-out: TNF induced HEK-Blue assay IC50 value

Structure (SMILES)	IC50 [nM]
C[C@@H](Nc1c(Cl)cnc2ccc(-c3cnc(C4(O)CCC(=O)CC4)nc3)cc12)c1ccccc1F [Example 114, (R)-4-(5-(3-chloro-4-((1-(2-fluorophenyl)ethyl)amino)quinolin-6-yl)pyrimidin-2-yl)-4-hydroxycyclohexanone]	< 1000
CC(C)C(Nc1c(Cl)cnc2ccc(-c3cnc(C(C)(C)O)nc3)cc12)c1ccccn1 (racemic) [Example 51, 2-(5-(3-chloro-4-((2-methyl-1-(pyridin-2-yl)propyl)amino)quinolin-6-yl)pyrimidin-2-yl)propan-2-ol]	< 1000
CC(Nc1c(Cl)cnc2cc(F)c(-c3cnc(N4CCC(CC(=O)O)CC4)nc3)cc12)c1ccccc1F (racemic) [Example 266, 2-(1-(5-(3-chloro-7-fluoro-4-((1-(2-fluorophenyl)ethyl)amino)quinolin-6-yl)pyrimidin-2-yl)piperidin-4-yl)acetic acid]	< 1000
C[C@H](Nc1c(Cl)cnc2ccc(-c3cnc(C(C)(C)O)nc3)cc12)[C@H]1CCCN(C(=O)c2cn[nH]c2)C1 [Example 565, ((S)-3-((S)-1-((3-chloro-6-(2-(2-hydroxypropan-2-yl)pyrimidin-5-yl)quinolin-4-yl)amino)ethyl)piperidin-1-yl)(1H-pyrazol-4-yl)methanone]	10000 to 25000
CC(Nc1ccnc2cc(F)c(-c3cnc(C4(O)CCOCC4)nc3)cc12)c1ccccc1F (racemic) [Example 287, 4-(5-(7-fluoro-4-((1-(2-fluorophenyl)ethyl)amino)quinolin-6-yl)pyrimidin-2-yl)tetrahydro-2H-pyran-4-ol]	10000 to 25000
CC(C)(O)c1ncc(-c2cc3c(N[C@H]4C[C@@H]4c4ccccc4)c(Cl)cnc3cc2F)cn1 (mixture of isomers) [Example 271, 2-(5-(3-chloro-7-fluoro-4-(((1S,2R)-2-phenylcyclopropyl)amino)quinolin-6-yl)pyrimidin-2-yl)propan-2-ol]	1000 to 10000
C[C@@H](Nc1c(Cl)cnc2ccc(-c3cnc(C4CCN(CC(=O)O)CC4)nc3)cc12)c1ccccc1F [Example 593, (R)-2-(4-(5-(3-chloro-4-((1-(2-fluorophenyl)ethyl)amino)quinolin-6-yl)pyrimidin-2-yl)piperidin-1-yl)acetic acid]	1000 to 10000
CC(C)(O)c1ncc(-c2ccc3ncc(Cl)c(NC(c4ccccc4F)C(F)F)c3c2)cn1 (single isomer, unassigned) [Example 55a]	< 1000
C[C@@H](Nc1c(Cl)cnc2cc(F)c(-c3cnc(N4CCN(CC(=O)NCC(=O)O)CC4)nc3)cc12)c1ccccc1F [Example 304, (R)-(2-(4-(5-(3-chloro-7-fluoro-4-((1-(2-fluorophenyl)ethyl)amino)quinolin-6-yl)pyrimidin-2-yl)piperazin-1-yl)acetyl)glycine]	< 1000
C[C@@H](Nc1c(Cl)cnc2ccccc12)c1cc(-c2ccnc3[nH]ccc23)ccc1F [Example 525, (R)-3-chloro-N-(1-(2-fluoro-5-(1H-pyrrolo[2,3-b]pyridin-4-yl)phenyl)ethyl) quinolin-4-amine]	1000 to 10000
C[C@@H](Nc1c(Cl)cnc2ccccc12)c1cc(-c2ccc(C#N)nc2)ccc1F [Example 514, (R)-5-(3-(1-((3-chloroquinolin-4-yl)amino)ethyl)-4-fluorophenyl)picolinonitrile]	< 1000
COc1cc(-c2ccc(F)c([C@@H](C)Nc3c(Cl)cnc4ccccc34)c2)c(F)cn1 [Example 527, (R)-3-chloro-N-(1-(2-fluoro-5-(5-fluoro-2-methoxypyridin-4-yl)phenyl)ethyl)quinolin-4-amine]	1000 to 10000
CC(C)(O)CNc1ncc(-c2ccc3ncc(Cl)c(N[C@@H](c4ccccc4F)C(F)F)c3c2)cn1 [Example 80, (S)-1-((5-(3-chloro-4-((2,2-difluoro-1-(2-fluorophenyl)ethyl)amino)quinolin-6-yl)pyrimidin-2-yl)amino)-2-methylpropan-2-ol]	< 1000
C[C@@H](Nc1c(Cl)cnc2cc(F)c(-c3cnc(C(C)(C)O)nc3)nc12)c1cccc(CO)c1 [Example 576, (R)-2-(5-(7-chloro-3-fluoro-8-((1-(3-(hydroxymethyl)phenyl)ethyl)amino)-1,5-naphthyridin-2-yl)pyrimidin-2-yl)propan-2-ol]	< 1000
CC(Nc1c(Cl)cnc2cc(F)c(-c3cnc(N4CCC(C(C)(C)O)CC4)nc3)cc12)c1ccccc1F (single isomer, unassigned) [Example 245, 2-(1-(5-(3-chloro-7-fluoro-4-((1-(2-fluorophenyl)ethyl)amino)quinolin-6-yl)pyrimidin-2-yl)piperidin-4-yl)propan-2-ol]	< 1000
CC#CC(=O)N1CCN(c2ccc(-c3ccc4ncc(Cl)c(N[C@H](C)c5ccccc5F)c4c3)cn2)CC1 [Example 125, (R)-1-(4-(5-(3-chloro-4-((1-(2-fluorophenyl)ethyl)amino)quinolin-6-yl)pyridin-2-yl)piperazin-1-yl)but-2-yn-1-one]	< 1000

More lines, now with the values ahead:

IC50 [nM]	Structure (SMILES)
1000 to 10000	C[C@@H](Nc1c(Cl)cnc2ccc(-c3ccc(CC(N)C(=O)O)cc3)cc12)c1ccccc1F (mixture of isomers) [Example 116, 2-amino-3-(4-(3-chloro-4-(((R)-1-(2-fluorophenyl)ethyl)amino)quinolin-6-yl)phenyl)propanoic acid]
< 1000	C[C@@H](Nc1c(Cl)cnc2ccc(-c3ccncc3)cc12)c1cc(-c2cncnc2)ccc1F [Example 540, (R)-3-chloro-N-(1-(2-fluoro-5-(pyrimidin-5-yl)phenyl)ethyl)-6-(pyridin-4-yl)quinolin-4-amine]
< 1000	C[C@@H](Nc1c(Cl)cnc2ccc(-c3ccc(C(O)(CF)CF)cc3)cc12)c1ccccc1F [Example 117, (R)-2-(4-(3-chloro-4-((1-(2-fluorophenyl)ethyl)amino)quinolin-6-yl)phenyl)-1,3-difluoropropan-2-ol]
< 1000	Cc1ccc(C)c(Nc2c(Cl)c(N)nc3ccc(-c4cnc(NC(CO)CO)nc4)cc23)c1 [Example 71, 2-((5-(2-amino-3-chloro-4-((2,5-dimethylphenyl)amino)quinolin-6-yl)pyrimidin-2-yl)amino)propane-1,3-diol]
< 1000	CC(C)(O)c1ncc(-c2ccc3ncc(Cl)c(NC(CC(F)(F)F)c4ccccc4)c3c2)cn1 (racemic) [Example 165, 2-(5-(3-chloro-4-((3,3,3-trifluoro-1-phenylpropyl)amino)quinolin-6-yl)pyrimidin-2-yl)propan-2-ol]
10000 to 25000	Cc1nc2ccc(-c3cnc(C(C)(C)O)nc3)cc2c(NC(C)c2ccccc2F)c1F (racemic) [Example 159, 2-(5-(3-fluoro-4-((1-(2-fluorophenyl)ethyl)amino)-2-methylquinolin-6-yl)pyrimidin-2-yl)propan-2-ol]
< 1000	Cc1ccc(C)c(Nc2c(Cl)c(N)nc3ccc(-c4cnc(N5CCN(CC(=O)O)CC5)nc4)cc23)c1 [Example 45, 2-(4-(5-(2-amino-3-chloro-4-((2,5-dimethylphenyl)amino)quinolin-6-yl)pyrimidin-2-yl)piperazin-1-yl)acetic acid]
< 1000	CC(Nc1c(Cl)cnc2ccc(-c3ccc(C(C)(C)O)cc3)cc12)c1ccccn1 (racemic) [Example 175, 2-(4-(3-chloro-4-((1-(pyridin-2-yl)ethyl)amino)quinolin-6-yl)phenyl)propan-2-ol]
< 1000	Cc1nc2ccc(-c3cnc(C(C)(C)O)nc3)cc2c(N[C@H](C)c2cc(CCO)ccc2F)c1Cl [Example 323, (R)-2-(5-(3-chloro-4-((1-(2-fluoro-5-(2-hydroxyethyl)phenyl)ethyl)amino)-2-methylquinolin-6-yl)pyrimidin-2-yl)propan-2-ol]
< 1000	C[C@@H](Nc1c(Cl)cnc2ccccc12)c1cc(-c2cnc3[nH]ccc3c2)ccc1F [Example 537, (R)-3-chloro-N-(1-(2-fluoro-5-(1H-pyrrolo[2,3-b]pyridin-5-yl)phenyl)ethyl)quinolin-4-amine]
10000 to 25000	CC(Nc1c(Cl)cnc2ccc(-c3ccc(C(C)(C)O)cc3)cc12)c1cocn1 (racemic) [Example 206, 2-(4-(3-chloro-4-((1-(oxazol-4-yl)ethyl)amino)quinolin-6-yl)phenyl)propan-2-ol]
10000 to 25000	Cc1ccc(C)c(NCc2nc3ccc(-c4cnn(C)c4)cc3c(Nc3cc(C)ccc3C)c2Cl)c1 [Example 2, 3-chloro-N-(2,5-dimethylphenyl)-2-(((2,5-dimethylphenyl)amino)methyl)-6-(1-methyl-1H-pyrazol-4-yl)quinolin-4-amine]
< 1000	Cc1nc2ccc(-c3cnc(C(C)(C)O)nc3)cc2c(N[C@H](C)c2cc(N3CCCC3=O)ccc2F)c1Cl [Example 361, (R)-1-(3-(1-((3-chloro-6-(2-(2-hydroxypropan-2-yl)pyrimidin-5-yl)-2-methylquinolin-4-yl)amino)ethyl)-4-fluorophenyl)pyrrolidin-2-one]
< 1000	Cc1nc2ccccc2c(N[C@H](C)c2cc(-c3cn[nH]c3)ccc2F)c1Cl [Example 533, (R)-3-chloro-N-(1-(2-fluoro-5-(1H-pyrazol-4-yl)phenyl)ethyl)-2-methylquinolin-4-amine]
